These are literature values, as cited in US20260092327A1, “METHODS OF MONITORING MUTATIONS IN TREATMENT OF COLORECTAL CANCER” (Cardiff Oncology, Inc., priority 2022, published 2026).

SMILES strings stand for the structures.

Series [1] has as its system advanced/metastatic solid tumors.
Series [2] concerns disseminated model of AML.
Another series relates to xenograft tumor. As to conditions: well tolerated doses in mice after oral administration.
The target in a further series is PLK1 (Homo sapiens, UniProt P53350). The following applies: among a panel of 296 kinases, including other PLK members.
PLK1, sequence (P53350 whole entry): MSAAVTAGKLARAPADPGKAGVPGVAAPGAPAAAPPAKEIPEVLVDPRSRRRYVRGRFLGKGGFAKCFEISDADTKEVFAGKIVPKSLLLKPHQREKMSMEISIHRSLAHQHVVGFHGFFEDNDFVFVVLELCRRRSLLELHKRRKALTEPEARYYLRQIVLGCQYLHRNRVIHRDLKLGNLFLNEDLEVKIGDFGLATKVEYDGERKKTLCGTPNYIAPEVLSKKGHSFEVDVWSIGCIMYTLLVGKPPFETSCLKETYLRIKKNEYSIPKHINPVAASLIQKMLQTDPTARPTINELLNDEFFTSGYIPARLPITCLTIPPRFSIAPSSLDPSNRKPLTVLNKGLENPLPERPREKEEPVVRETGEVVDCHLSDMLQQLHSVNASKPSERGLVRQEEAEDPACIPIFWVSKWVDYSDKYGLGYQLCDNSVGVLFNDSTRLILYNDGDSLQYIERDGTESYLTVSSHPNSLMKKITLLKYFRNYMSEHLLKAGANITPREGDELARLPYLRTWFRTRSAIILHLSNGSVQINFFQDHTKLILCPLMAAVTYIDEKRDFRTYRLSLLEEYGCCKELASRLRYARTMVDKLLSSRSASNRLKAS
The test system of series [3] is cell lines from solid and hematologic tumors. As to conditions: large number of cell lines.
Series [4] concerns HCT-116 KRAS-mutant CRC xenograft. The following applies: HCT-116 KRAS-mutant CRC xenograft model.
For series [5], the system named is HT29 human colon adenocarcinoma xenografts. As to conditions: compared to each agent alone.
Where [6] appears, read: adult subjects with advanced/metastatic solid tumors, single agent.

With `CN1CCN(c2ccc(OC(F)(F)F)c(Nc3ncc4c(n3)-c3c(c(C(N)=O)nn3CCO)CC4)c2)CC1` [Onvansertib, 1-(2-hydroxyethyl)-8-{[5-(4-methylpiperazin-1-yl)-2-(trifluoromethoxy)phenyl]amino}-4,5-dihydro-1H-pyrazolo[4,3-h]quinazoline-3-carboxamide], in series [1] (setting [6]), the “evaluable patients with stable disease” value is given as 5 of 16 and the “recommended phase 2 dose” value is on record as 24 mg/m^2. Further, in series [1] (patients with advanced/metastatic solid tumors), the primary dose-limiting toxicities entry is “neutropenia and thrombocytopenia”. For the same compound, in series [1] (toxicities reversible), the “recovery of hematologic toxicities” value is at most 3 weeks. In addition, the “survival of animals in combination with cytarabine” value in series [2] is “prolonged survival”. The xenograft tumor growth result in the series with xenograft tumor was “inhibits xenograft tumor growth”. Further, the “specificity for PLK1” value on PLK1 is “high specificity”. Further, the half-life result (in vivo) is “about 24 hours”. Moreover, the oral bioavailability entry (rodent and nonrodent species) is reported as “good oral bioavailability”. Besides, the “potency in proliferation assays” value in series [3] is “low nanomolar activity”. In series [4], the “anti-tumor activity as single agent” value was “potent anti-tumor activity”, the “combination effect with 5-FU” value was “synergy” and the “combination effect with irinotecan” value was “synergy”. Further, the “effect on cell cycle” value with cancer cell lines is recorded as “mitotic cell-cycle arrest followed by apoptosis”. Besides, in series [5], the “tumor regression in combination with irinotecan” value was “enhanced tumor regression”.
